Patent publication US7166299B2, “Preparation of aqueous clear solution dosage forms with bile acids” (priority 1998, dated 2007)
“And” between values parts separate entries of the source, which are not always exact repeats. Equal values may be shown once.

Assay: Solution stability test (HPLC) of UDCA, branched chained amino acids and maltodextrin solution, Example IV
Format: physicochemical
Method: The stability tests were conducted on three different aqueous solution systems: […]. A bile acid and a high molecular weight aqueous soluble starch conversion product were combined in aqueous solution according to Example I, with results as shown in Tables 1A and 1B. • 2. Mixed bile acids and high molecular weight aqueous soluble starch conversion products were combined in aqueous solution according to Example II, with results as shown in Table 2. • 3. Bile acids, high molecular weight aqueous soluble starch conversion products and branched chained amino acids (e.g. leucine, isoleucine, valine, or other amino acid with a branched side chain) were combined in aqueous solution according to Example IV, with results as shown in Tables 3A through 3F. The stability tests were performed with HPLC and microscope light at various pH conditions under the normal and accelerated conditions. Accelerated conditions for testing pharmaceutical compositions have been described (Remington, The Science and Practice of Pharmacy, 19th ed., p. 640). […] Thus, the formulations of the examples are suitable for preparing a commercial liquid dosage form. […] Some formulations remain stable for over 2 years. Moreover, the solution stability tests were conducted on the aqueous solution dosage forms comprising the mixture of aqueous soluble UDCA, branched chained amino acid (leucine, isoleucine, valine) and maltodextrin according to example IV as a typical example of the solution dosage forms in which bile acid as a therapeutically active agent, as an adjuvant or carrier, pharmaceutically active agent, or enhancer of solubility, and high molecular weight aqueous soluble starch conversion products or soluble non-starch polysaccharides are dissolved. According to the test results, there is no discoloration, no clarity changes, and no precipitation. […] In the tables, the concentration of the indicated bile acid salt for each of the three numbered trials and the average thereof is reported on each line. The percentage indicates the relative concentration of the bile acid salt after incubation for a certain amount of time in comparison with the initial concentration. 85 mL of the aqueous solution in which soluble UDCA is dissolved was prepared, and then maltodextrin was added into the clear solution. Into the resulting clear solution, branched amino acids were added with adjusting the pH (4–7) with agitation and then sweetener, preservatives, and flavoring agent were added. Purified water was added to adjust the total volume to be 100 mL. Tables 3A to 3F show stability test results over time of formulation prepared with amino acids according to Example IV. All stability tests were conducted at 50° C. Stability test results at pH 1 (Table 3A), pH 3 (Table 3B), pH 5 (Table 3C), pH 7 (Table 3D), pH 9 (Table 3E), and pH 10 (Table 3F) are shown.

CC(C)[C@H](N)C(=O)O [Val, valine]
Percentage of day 0 concentration (Table 3A: pH1, 50° C., day 0): 100.0%
concentration by HPLC, Average (Table 3A: pH1, 50° C., day 0): 0.471
concentration by HPLC, trials #1-#3 (Table 3A: pH1, 50° C., day 0): 0.506 and 0.448 and 0.460
Percentage of day 0 concentration (Table 3A: pH1, 50° C., day 1): 96.7%
concentration by HPLC, Average (Table 3A: pH1, 50° C., day 1): 0.456
concentration by HPLC, trials #1-#3 (Table 3A: pH1, 50° C., day 1): 0.438 and 0.458 and 0.471
Percentage of day 0 concentration (Table 3A: pH1, 50° C., day 2): 104.5%
concentration by HPLC, Average (Table 3A: pH1, 50° C., day 2): 0.492
concentration by HPLC, trials #1-#3 (Table 3A: pH1, 50° C., day 2): 0.479 and 0.485 and 0.513
Percentage of day 0 concentration (Table 3A: pH1, 50° C., day 6): 112.4%
concentration by HPLC, Average (Table 3A: pH1, 50° C., day 6): 0.530
concentration by HPLC, trials #1-#3 (Table 3A: pH1, 50° C., day 6): 0.505 and 0.536 and 0.549
Percentage of day 0 concentration (Table 3A: pH1, 50° C., day 7): 102.9%
concentration by HPLC, Average (Table 3A: pH1, 50° C., day 7): 0.485
concentration by HPLC, trials #1-#3 (Table 3A: pH1, 50° C., day 7): 0.494 and 0.465 and 0.496
Percentage of day 0 concentration (Table 3A: pH1, 50° C., day 8): 101.7%
concentration by HPLC, Average (Table 3A: pH1, 50° C., day 8): 0.479
concentration by HPLC, trials #1-#3 (Table 3A: pH1, 50° C., day 8): 0.488 and 0.491 and 0.459
Percentage of day 0 concentration (Table 3A: pH1, 50° C., day 9): 103.6%
concentration by HPLC, Average (Table 3A: pH1, 50° C., day 9): 0.488
concentration by HPLC, trials #1-#3 (Table 3A: pH1, 50° C., day 9): 0.479 and 0.496 and 0.490
Percentage of day 0 concentration (Table 3B: pH 3, 50° C., day 0): 100.0%
concentration by HPLC, Average (Table 3B: pH 3, 50° C., day 0): 0.491
concentration by HPLC, trials #1-#3 (Table 3B: pH 3, 50° C., day 0): 0.485 and 0.491 and 0.498
Percentage of day 0 concentration (Table 3B: pH 3, 50° C., day 1): 94.6%
concentration by HPLC, Average (Table 3B: pH 3, 50° C., day 1): 0.465
concentration by HPLC, trials #1-#3 (Table 3B: pH 3, 50° C., day 1): 0.467 and 0.481 and 0.446
Percentage of day 0 concentration (Table 3B: pH 3, 50° C., day 2): 103.8%
concentration by HPLC, Average (Table 3B: pH 3, 50° C., day 2): 0.510
concentration by HPLC, trials #1-#3 (Table 3B: pH 3, 50° C., day 2): 0.510 and 0.493 and 0.527
Percentage of day 0 concentration (Table 3B: pH 3, 50° C., day 6): 106.6%
concentration by HPLC, Average (Table 3B: pH 3, 50° C., day 6): 0.524
concentration by HPLC, trials #1-#3 (Table 3B: pH 3, 50° C., day 6): 0.527 and 0.491 and 0.553
Percentage of day 0 concentration (Table 3B: pH 3, 50° C., day 7): 97.3%
concentration by HPLC, Average (Table 3B: pH 3, 50° C., day 7): 0.478
concentration by HPLC, trials #1-#3 (Table 3B: pH 3, 50° C., day 7): 0.485 and 0.481 and 0.468
Percentage of day 0 concentration (Table 3B: pH 3, 50° C., day 8): 103.5%
concentration by HPLC, Average (Table 3B: pH 3, 50° C., day 8): 0.508
concentration by HPLC, trials #1-#3 (Table 3B: pH 3, 50° C., day 8): 0.490 and 0.491 and 0.544
Percentage of day 0 concentration (Table 3B: pH 3, 50° C., day 13): 104.1%
concentration by HPLC, Average (Table 3B: pH 3, 50° C., day 13): 0.511
concentration by HPLC, trials #1-#3 (Table 3B: pH 3, 50° C., day 13): 0.519 and 0.498 and 0.517
Percentage of day 0 concentration (Table 3C: pH 5, 50° C., day 0): 100.0%
concentration by HPLC, Average (Table 3C: pH 5, 50° C., day 0): 0.487
concentration by HPLC, trials #1-#3 (Table 3C: pH 5, 50° C., day 0): 0.483 and 0.498 and 0.481
Percentage of day 0 concentration (Table 3C: pH 5, 50° C., day 3): 103.4%
concentration by HPLC, Average (Table 3C: pH 5, 50° C., day 3): 0.504
concentration by HPLC, trials #1-#3 (Table 3C: pH 5, 50° C., day 3): 0.492 and 0.494 and 0.526
Percentage of day 0 concentration (Table 3C: pH 5, 50° C., day 6): 96.8%
concentration by HPLC, Average (Table 3C: pH 5, 50° C., day 6): 0.472
concentration by HPLC, trials #1-#3 (Table 3C: pH 5, 50° C., day 6): 0.459 and 0.475 and 0.481
Percentage of day 0 concentration (Table 3C: pH 5, 50° C., day 10): 96.9%
concentration by HPLC, Average (Table 3C: pH 5, 50° C., day 10): 0.472
concentration by HPLC, trials #1-#3 (Table 3C: pH 5, 50° C., day 10): 0.500 and 0.436 and 0.480
Percentage of day 0 concentration (Table 3C: pH 5, 50° C., day 13): 95.0%
concentration by HPLC, Average (Table 3C: pH 5, 50° C., day 13): 0.463
concentration by HPLC, trials #1-#3 (Table 3C: pH 5, 50° C., day 13): 0.464 and 0.451 and 0.474
Percentage of day 0 concentration (Table 3C: pH 5, 50° C., day 17): 93.0%
concentration by HPLC, Average (Table 3C: pH 5, 50° C., day 17): 0.453
concentration by HPLC, trials #1-#3 (Table 3C: pH 5, 50° C., day 17): 0.407 and 0.491 and 0.462
Percentage of day 0 concentration (Table 3C: pH 5, 50° C., day 20): 99.9%
concentration by HPLC, Average (Table 3C: pH 5, 50° C., day 20): 0.487
concentration by HPLC, trials #1-#3 (Table 3C: pH 5, 50° C., day 20): 0.471 and 0.512 and 0.477
Percentage of day 0 concentration (Table 3C: pH 5, 50° C., day 24): 96.1%
concentration by HPLC, Average (Table 3C: pH 5, 50° C., day 24): 0.468
concentration by HPLC, trials #1-#3 (Table 3C: pH 5, 50° C., day 24): 0.471 and 0.476 and 0.458
Percentage of day 0 concentration (Table 3D: pH 7, 50° C., day 0): 100.0%
concentration by HPLC, Average (Table 3D: pH 7, 50° C., day 0): 0.513
concentration by HPLC, trials #1-#3 (Table 3D: pH 7, 50° C., day 0): 0.483 and 0.530 and 0.525
Percentage of day 0 concentration (Table 3D: pH 7, 50° C., day 5): 94.1%
concentration by HPLC, Average (Table 3D: pH 7, 50° C., day 5): 0.483
concentration by HPLC, trials #1-#3 (Table 3D: pH 7, 50° C., day 5): 0.502 and 0.447 and 0.499
Percentage of day 0 concentration (Table 3D: pH 7, 50° C., day 8): 96.2%
concentration by HPLC, Average (Table 3D: pH 7, 50° C., day 8): 0.493
concentration by HPLC, trials #1-#3 (Table 3D: pH 7, 50° C., day 8): 0.488 and 0.498 and 0.493
Percentage of day 0 concentration (Table 3D: pH 7, 50° C., day 12): 91.2%
concentration by HPLC, Average (Table 3D: pH 7, 50° C., day 12): 0.467
concentration by HPLC, trials #1-#3 (Table 3D: pH 7, 50° C., day 12): 0.490 and 0.469 and 0.443
Percentage of day 0 concentration (Table 3D: pH 7, 50° C., day 15): 95.9%
concentration by HPLC, Average (Table 3D: pH 7, 50° C., day 15): 0.492
concentration by HPLC, trials #1-#3 (Table 3D: pH 7, 50° C., day 15): 0.492 and 0.541 and 0.442
Percentage of day 0 concentration (Table 3D: pH 7, 50° C., day 19): 93.6%
concentration by HPLC, Average (Table 3D: pH 7, 50° C., day 19): 0.480
concentration by HPLC, trials #1-#3 (Table 3D: pH 7, 50° C., day 19): 0.458 and 0.500 and 0.482
Percentage of day 0 concentration (Table 3E: pH 9, 50° C., day 0): 100.0%
concentration by HPLC, Average (Table 3E: pH 9, 50° C., day 0): 0.489
concentration by HPLC, trials #1-#3 (Table 3E: pH 9, 50° C., day 0): 0.508 and 0.476 and 0.484
Percentage of day 0 concentration (Table 3E: pH 9, 50° C., day 3): 97.8%
concentration by HPLC, Average (Table 3E: pH 9, 50° C., day 3): 0.478
concentration by HPLC, trials #1-#3 (Table 3E: pH 9, 50° C., day 3): 0.463 and 0.487 and 0.485
Percentage of day 0 concentration (Table 3E: pH 9, 50° C., day 6): 99.5%
concentration by HPLC, Average (Table 3E: pH 9, 50° C., day 6): 0.487
concentration by HPLC, trials #1-#3 (Table 3E: pH 9, 50° C., day 6): 0.493 and 0.473 and 0.495
Percentage of day 0 concentration (Table 3E: pH 9, 50° C., day 10): 91.3%
concentration by HPLC, Average (Table 3E: pH 9, 50° C., day 10): 0.447
concentration by HPLC, trials #1-#3 (Table 3E: pH 9, 50° C., day 10): 0.441 and 0.428 and 0.471
Percentage of day 0 concentration (Table 3E: pH 9, 50° C., day 13): 101.3%
concentration by HPLC, Average (Table 3E: pH 9, 50° C., day 13): 0.496
concentration by HPLC, trials #1-#3 (Table 3E: pH 9, 50° C., day 13): 0.467 and 0.483 and 0.537
Percentage of day 0 concentration (Table 3E: pH 9, 50° C., day 17): 101.8%
concentration by HPLC, Average (Table 3E: pH 9, 50° C., day 17): 0.498
concentration by HPLC, trials #1-#3 (Table 3E: pH 9, 50° C., day 17): 0.499
Percentage of day 0 concentration (Table 3F: pH 10, 50° C., day 0): 100.0%
concentration by HPLC, Average (Table 3F: pH 10, 50° C., day 0): 0.486
Percentage of day 0 concentration (Table 3F: pH 10, 50° C., day 2): 104.2%
concentration by HPLC, Average (Table 3F: pH 10, 50° C., day 2): 0.506
Percentage of day 0 concentration (Table 3F: pH 10, 50° C., day 5): 83.5%
concentration by HPLC, Average (Table 3F: pH 10, 50° C., day 5): 0.405
Percentage of day 0 concentration (Table 3F: pH 10, 50° C., day 7): 81.8%
concentration by HPLC, Average (Table 3F: pH 10, 50° C., day 7): 0.397
Percentage of day 0 concentration (Table 3F: pH 10, 50° C., day 9): 75.8%
concentration by HPLC, Average (Table 3F: pH 10, 50° C., day 9): 0.368
